The conditions of this data set: for aqueous solubility: pH 6.8.

In brackets after ≈: the same amount, converted by molar mass. A value given as a limit tells only on which side of the number the result lay.

Broadly, the aqueous solubility is the dissolved amount per volume that the medium holds. `CC(c1ccccc1)N1CC(C(=O)N2CCC(n3c(=O)[nH]c4ccccc43)CC2)CC1=O` (stereo unspecified) returned an intrinsic clearance, human liver microsomes of 32.1 mL/min/kg; an intrinsic clearance, rat liver microsomes of 454 mL/min/kg; an aqueous solubility of 71.7 µg/mL (≈ 166 µM).
In the case of `c1ccc(CNc2nn3nnnc3c3ccccc23)cc1`, the MDR1-MDCK efflux ratio came to 0.624 and the aqueous solubility is 0.1 µg/mL (≈ 0.362 µM).
For `CN(C(=O)CNC(=O)c1ccccc1OCC(=O)Nc1ccc(Br)cc1)c1ccccc1`, in that order: 3.43 and 0.35 µg/mL (≈ 0.705 µM).
On to `CCCn1cc(C(=O)N2CCC(c3n[nH]cc3C(=O)N(C)Cc3ccccc3)CC2)cn1`, for which the MDR1-MDCK efflux ratio is 9.45; the intrinsic clearance, human liver microsomes came out at 129 mL/min/kg; the intrinsic clearance, rat liver microsomes was 561 mL/min/kg; the aqueous solubility turned out to be 45.3 µg/mL (≈ 104 µM).
As to `CC1(C)CC[C@]2(NC(=O)C(C)(F)F)CC[C@]3(C)[C@H](C(=O)C=C4[C@@]5(C)C=C(C#N)C(=O)C(C)(C)[C@@H]5CC[C@]43C)[C@@H]2C1`, the MDR1-MDCK efflux ratio turned out to be 6.31; the fraction unbound, rat plasma came to 0.0088; the intrinsic clearance, human liver microsomes amounted to 76.7 mL/min/kg; the intrinsic clearance, rat liver microsomes worked out at 145 mL/min/kg.
With `O=C(NCCN1C(=O)CSC1=O)c1cc(Cl)c2c(c1)OCO2`, the MDR1-MDCK efflux ratio was 2.69; the intrinsic clearance, human liver microsomes stood at 13 mL/min/kg; the intrinsic clearance, rat liver microsomes was 83 mL/min/kg; the aqueous solubility is 39.6 µg/mL (≈ 116 µM).
For `Fc1ccc(F)c2c(NCc3ccc(N4CCOCC4)nc3)ccnc12`, in that order: 1.29, 40.6 mL/min/kg, 151 mL/min/kg and 44.2 µg/mL (≈ 124 µM).
For `CCN(CC)CC(=O)Nc1ccc(Oc2ccc(C)nn2)cc1`, the MDR1-MDCK efflux ratio worked out at 1.62; the intrinsic clearance, human liver microsomes is at most 4.74 mL/min/kg; the intrinsic clearance, rat liver microsomes came to 31.6 mL/min/kg.
Take `CC(=O)N1CCN(Cc2nc(O)cc(C(F)(F)F)n2)C(C)(C)C1`: the MDR1-MDCK efflux ratio was 26.6; the intrinsic clearance, human liver microsomes is at most 4.74 mL/min/kg; the intrinsic clearance, rat liver microsomes is at most 10.7 mL/min/kg.
With `CCOc1cc2c(cc1CCC(=O)N1CCC(Cc3ncncc3C(N)=O)CC1)CCC2`, the intrinsic clearance, human liver microsomes turned out to be 564 mL/min/kg; the intrinsic clearance, rat liver microsomes was 1650 mL/min/kg; the aqueous solubility amounted to 75.2 µg/mL (≈ 172 µM).
Regarding `OC1CCN(c2nccc(-c3cccs3)n2)CC1`, the MDR1-MDCK efflux ratio was found to be 0.493; the intrinsic clearance, human liver microsomes was found to be 52.6 mL/min/kg; the intrinsic clearance, rat liver microsomes worked out at 656 mL/min/kg.
Take `c1nc(Nc2ccc3c(c2)OCCCO3)c2sccc2n1`: the intrinsic clearance, human liver microsomes was determined as 92.1 mL/min/kg; the intrinsic clearance, rat liver microsomes stood at 1570 mL/min/kg; the aqueous solubility came out at 51 µg/mL (≈ 170 µM).
In the case of `N#CCNC(=O)c1ccc(C#N)c(Cl)c1`, the intrinsic clearance, human liver microsomes is at most 4.74 mL/min/kg and the intrinsic clearance, rat liver microsomes was at most 10.7 mL/min/kg.
As for `OCCN1CCN(c2ccnc3ccc(Br)cc23)CC1`, the MDR1-MDCK efflux ratio came to 1.74; the intrinsic clearance, human liver microsomes worked out at 12.5 mL/min/kg; the intrinsic clearance, rat liver microsomes was 114 mL/min/kg.
As for `Cc1noc(CCNc2ncnc3ccccc23)n1`, the MDR1-MDCK efflux ratio was determined as 0.926; the intrinsic clearance, human liver microsomes was at most 4.74 mL/min/kg; the intrinsic clearance, rat liver microsomes worked out at 94.4 mL/min/kg; the aqueous solubility was determined as 38.2 µg/mL (≈ 149 µM).
Consider `Cc1cccc(C)c1OCCn1nnnc1C`, for which the MDR1-MDCK efflux ratio stood at 0.657; the intrinsic clearance, human liver microsomes was at most 4.74 mL/min/kg; the intrinsic clearance, rat liver microsomes was 97.1 mL/min/kg.
Consider `O=C(CN1CCOC(c2ccc(F)cc2)C1)Nc1ccccc1OC(F)F` (stereo unspecified), for which the MDR1-MDCK efflux ratio came out at 0.589; the intrinsic clearance, human liver microsomes is 93.6 mL/min/kg; the intrinsic clearance, rat liver microsomes was determined as 566 mL/min/kg; the aqueous solubility came to 23.1 µg/mL (≈ 60.7 µM).
With `CCN1CCc2ncnc(N(C)Cc3ccc4c(c3)OCCO4)c2C1`, the MDR1-MDCK efflux ratio is 0.787; the intrinsic clearance, human liver microsomes was 114 mL/min/kg; the intrinsic clearance, rat liver microsomes is 448 mL/min/kg; the aqueous solubility was found to be 38.9 µg/mL (≈ 114 µM).
For `CCCCCNC(=N)N/N=C/c1c[nH]c2ccc(OC)cc12`, in that order: 72, 10.3 mL/min/kg, 182 mL/min/kg and 30.1 µg/mL (≈ 100 µM).
Take `Cc1ccc(-c2cnn3c(O)cc(Cn4cccn4)nc23)cc1`: the MDR1-MDCK efflux ratio is 2.46; the intrinsic clearance, human liver microsomes was found to be 18.3 mL/min/kg; the intrinsic clearance, rat liver microsomes was 225 mL/min/kg.
Take `OCCOc1ccccc1OCc1ncc(Cl)cc1Cl`: the MDR1-MDCK efflux ratio was 0.551; the intrinsic clearance, human liver microsomes came to 48.5 mL/min/kg; the intrinsic clearance, rat liver microsomes amounted to 319 mL/min/kg.
In the case of `Cc1ccc(C(=O)Nc2ccccc2C(C)(C)C)cn1`, the MDR1-MDCK efflux ratio was 0.696; the intrinsic clearance, human liver microsomes is at most 4.74 mL/min/kg; the intrinsic clearance, rat liver microsomes was found to be 30.4 mL/min/kg; the aqueous solubility was determined as 32 µg/mL (≈ 119 µM).
Turning to `NC[C@H]1CC[C@@H](C(=O)Nc2ccc3[nH]ncc3c2)O1`, the MDR1-MDCK efflux ratio is 1.14; the fraction unbound, human plasma amounted to 0.959; the intrinsic clearance, human liver microsomes came to 17.7 mL/min/kg.
On to `COc1ccc([C@H]2c3[nH]c4ccc(Cl)cc4c3CCN2C(=O)Oc2ccc(Cl)cc2)cc1`, for which the MDR1-MDCK efflux ratio is 0.432; the fraction unbound, human plasma was determined as 0.326; the fraction unbound, rat plasma turned out to be 0.568; the aqueous solubility turned out to be 0.1 µg/mL (≈ 0.214 µM).
For the molecule `Cc1nc(Cc2ccccc2)sc1C(=O)Nc1cccc(-c2ccn[nH]2)c1`, the MDR1-MDCK efflux ratio stood at 2.86; the intrinsic clearance, human liver microsomes came to 30.4 mL/min/kg; the intrinsic clearance, rat liver microsomes came out at 406 mL/min/kg.
Regarding `Cc1ccc(CC(=O)Nc2nc(C)no2)cn1`, the MDR1-MDCK efflux ratio stood at 2; the intrinsic clearance, human liver microsomes is at most 4.74 mL/min/kg; the intrinsic clearance, rat liver microsomes was at most 10.7 mL/min/kg; the aqueous solubility stood at 42.8 µg/mL (≈ 184 µM).
Consider `CCC(=O)N(C)c1ccccc1C(=O)O`, for which the MDR1-MDCK efflux ratio worked out at 1.28; the intrinsic clearance, human liver microsomes was 23.7 mL/min/kg; the intrinsic clearance, rat liver microsomes was 1130 mL/min/kg; the aqueous solubility stood at 36.4 µg/mL (≈ 176 µM).
With `COCCNc1c(C)c(C)nc2cc(-c3nccn3C)nn12`, the MDR1-MDCK efflux ratio is 1.53; the intrinsic clearance, human liver microsomes worked out at 21.1 mL/min/kg; the intrinsic clearance, rat liver microsomes came to 79.6 mL/min/kg.
As for `Cc1cc(-c2cnn(CCNC(=O)c3sc(C)nc3C)c2C2CC2)on1`, the MDR1-MDCK efflux ratio was determined as 5.26; the intrinsic clearance, human liver microsomes was found to be 23.8 mL/min/kg; the intrinsic clearance, rat liver microsomes is 123 mL/min/kg; the aqueous solubility worked out at 67.1 µg/mL (≈ 181 µM).
On to `Fc1ccc(CCNc2ncnc3ncccc23)cc1`, for which the MDR1-MDCK efflux ratio is 2.35; the intrinsic clearance, human liver microsomes amounted to 13.3 mL/min/kg; the intrinsic clearance, rat liver microsomes turned out to be 80.5 mL/min/kg.
`N#CCn1c(C(=O)O)cc2ccccc21` had an aqueous solubility of 41.5 µg/mL (≈ 207 µM).
Turning to `C=CC(=O)N1CCC[C@H](n2c(=O)n(-c3ccc(Oc4ccccc4)cc3)c3c(N)ncnc32)C1`, the MDR1-MDCK efflux ratio is 5.79; the fraction unbound, human plasma is 0.0963; the fraction unbound, rat plasma was 0.0189; the intrinsic clearance, human liver microsomes turned out to be 166 mL/min/kg. This molecule also came in with an intrinsic clearance, rat liver microsomes of 516 mL/min/kg and an aqueous solubility of 56.4 µg/mL (≈ 123 µM).
As for `COc1cc(/C=C2\CCCN([C@@H](C)c3ccc(F)cc3)C2=O)ccc1-n1cnc(C)c1`, the MDR1-MDCK efflux ratio came to 1.48; the intrinsic clearance, human liver microsomes worked out at 44.4 mL/min/kg; the intrinsic clearance, rat liver microsomes came to 83.1 mL/min/kg; the aqueous solubility came out at 12.9 µg/mL (≈ 30.8 µM).
As for `Cc1cccc(NC(=O)CSc2nncs2)c1`, the MDR1-MDCK efflux ratio worked out at 0.51; the intrinsic clearance, human liver microsomes came out at 22.6 mL/min/kg; the intrinsic clearance, rat liver microsomes came to 278 mL/min/kg.
As for `Clc1ccc2[nH]c(COc3ccccc3)nc2c1`, the intrinsic clearance, human liver microsomes worked out at 27.9 mL/min/kg; the intrinsic clearance, rat liver microsomes turned out to be 338 mL/min/kg; the aqueous solubility was 29.5 µg/mL (≈ 114 µM).
Consider `Cc1cc(C(=O)NCC2CCC3(CC2)OCCO3)[nH]n1`, for which the MDR1-MDCK efflux ratio amounted to 4.03; the intrinsic clearance, human liver microsomes was at most 4.74 mL/min/kg; the intrinsic clearance, rat liver microsomes is 99.2 mL/min/kg.
`CCCc1cc(C(=O)Nc2ccc(-c3nnc(C)[nH]3)cc2)no1`: the MDR1-MDCK efflux ratio was 0.865; the intrinsic clearance, human liver microsomes was determined as 131 mL/min/kg; the intrinsic clearance, rat liver microsomes came out at 290 mL/min/kg.
With `O=C(CN1CCCC(c2nc3ccccc3o2)C1)Nc1ccc(OC(F)(F)F)cc1` (stereo unspecified), the MDR1-MDCK efflux ratio turned out to be 0.983; the intrinsic clearance, human liver microsomes came out at 134 mL/min/kg; the intrinsic clearance, rat liver microsomes is 496 mL/min/kg; the aqueous solubility worked out at 6.85 µg/mL (≈ 16.3 µM).
For `CCc1nc(NC(=O)c2ccccc2F)sc1C`, in that order: 0.232, 26 mL/min/kg, 146 mL/min/kg and 23 µg/mL (≈ 87.1 µM).
Turning to `C[C@H](Cc1cc2c(c(C(N)=O)c1)N(CCCO)CC2)NCCOc1ccccc1OCC(F)(F)F`, the MDR1-MDCK efflux ratio came to 27.4; the intrinsic clearance, human liver microsomes was 59 mL/min/kg; the intrinsic clearance, rat liver microsomes was 313 mL/min/kg.
As for `COc1cc2c(cc1OC)CN(C(=O)C1CCCN(S(=O)(=O)c3ccc(F)cc3)C1)CC2` (stereo unspecified), the MDR1-MDCK efflux ratio was 5.4; the intrinsic clearance, human liver microsomes is 150 mL/min/kg; the intrinsic clearance, rat liver microsomes worked out at 1220 mL/min/kg; the aqueous solubility turned out to be 7.05 µg/mL (≈ 15.2 µM).
`CNCc1cc(NC)nc(C2CCCN2C(=O)COc2ccccc2OC)n1` (stereo unspecified): the MDR1-MDCK efflux ratio came to 1.2; the intrinsic clearance, human liver microsomes was at most 4.74 mL/min/kg; the intrinsic clearance, rat liver microsomes was 45.1 mL/min/kg.
For `O=C1NC2(CCCCC2)C(=O)N1Cc1csc(-c2ccccc2)n1`, in that order: 1.15, 23.7 mL/min/kg and 862 mL/min/kg.
For `CN(C)CC(C)(C)CNc1cn[nH]c(=O)c1Br`, the MDR1-MDCK efflux ratio stood at 0.676; the intrinsic clearance, human liver microsomes was 8.54 mL/min/kg; the intrinsic clearance, rat liver microsomes amounted to 43.9 mL/min/kg.
Regarding `CN1CCCN(c2nc(C(F)(F)F)nc3cc4c(cc23)OCO4)CC1`, the MDR1-MDCK efflux ratio came to 1.11; the intrinsic clearance, human liver microsomes came out at 22.3 mL/min/kg; the intrinsic clearance, rat liver microsomes was 209 mL/min/kg; the aqueous solubility turned out to be 43.3 µg/mL (≈ 122 µM).

The values above are taken from the Biogen ADME set (Fang et al. 2023).
